The experiment has as its target T1, AT1 C76A/S109C/C289A mutant receptor (Rattus norvegicus, UniProt P25095, C289A/C76A/S109C).
T1 construct: expressed in transfected cells; host or cells: COS1
T1 sequence (P25095 1-359 C76A/S109C/C289A): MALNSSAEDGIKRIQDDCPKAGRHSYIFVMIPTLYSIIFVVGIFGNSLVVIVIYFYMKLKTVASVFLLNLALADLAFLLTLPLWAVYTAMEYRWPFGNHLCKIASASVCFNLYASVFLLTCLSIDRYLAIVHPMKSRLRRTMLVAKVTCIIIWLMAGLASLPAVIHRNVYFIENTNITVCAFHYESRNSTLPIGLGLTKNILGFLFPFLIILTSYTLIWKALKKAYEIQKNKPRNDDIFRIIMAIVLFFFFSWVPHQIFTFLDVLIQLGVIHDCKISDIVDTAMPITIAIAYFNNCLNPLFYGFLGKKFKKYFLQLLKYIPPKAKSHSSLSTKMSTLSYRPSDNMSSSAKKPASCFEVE
Briefly: substituted cysteine accessibility mapping (SCAM), C76A/S109C/C289A. The class given is binding. More on the design: key: Less and More indicate that the AT1 receptor is less or more accessible to the ligand pocket, respectively; Less and More indicate that the AT1 receptor is less or more accessible to the ligand pocket, respectively; No change. To be noted: 1 µM ARB, […] MTSEA+, COS1 membranes. An excerpt: As we reported previously, the percentage (%) inhibition of ^125I-[Sar^1, Ile^8] AngII binding by methanethiosulphonate ethyl-ammonium (MTSEA^+) reagent was approximately 30% on AT1 receptor, since Cys^76 in TM2 was accessible to water within the ligand pocket. In addition, mechanical stretching increased the accessibility of Cys^289 by inducing a change in the conformation of TM7 [22]. To differentiate between single and multiple movements of one or more native cysteines, we created TM3 residues that were substituted with cysteine one at a time from […] to Phe^117 using the C76A/C289A mutant genetic background and evaluated each triple mutant for MTSEA sensitivity.
Figure 3 Changes in cysteine accessibility in COS1 cells expressing C76A/C289A mutant receptors in which the transmenbrane 3 residues from Ala^106 to Phe^117, except for position 113, were successively replaced by cysteine. 1 µM of ARBs, n=4–9, *p<0.05 vs. no treatment. #p<0.05 vs. C76A/C289A.
The SCAM method has been used to probe relative changes in the conformation of constitutively active AT1 receptor [20]–[22] and other GPCRs, [30] by validating the presence of Cys residues within the ligand pocket. We used a highly reactive, sulfhydryl-specific reaction with methanethiosulfonyl ethyl-ammonium (MTSEA^+), which reacts a billion times faster with water-exposed and ionized Cys than with lipid-exposed and un-ionized Cys. In this reaction, a positively charged sulfonylmethylammonium group is added to a water-exposed Cys. Aliquots of cell membranes are incubated with or without ARBs for 20 min in phosphate buffer at room temperature. The membranes are then diluted with same buffer and centrifuged. After washout the cell membranes, the membranes are incubated with 2.5 mM MTSEA^+ at room temperature for 2 min in HEPES buffer (pH7.4). The Membranes are then diluted with same buffer to stop the reaction and centrifuged. One hundred µl aliquots were used to assay for ^125I-[Sar^1,Ile^8]Ang II binding. […]

As to `CCCc1nc(C(C)(C)O)c(C(=O)O)n1Cc1ccc(-c2ccccc2-c2nnn[nH]2)cc1` [Olmesartan, olmesartan, reference compound], the “Cysteine accessibility at Ser109 compared to ligand (-)” value was “Less”. The “Cysteine accessibility at Ser109 compared to ligand (-)” value (listed as olmesartan) is on record as “less accessibility”.
As to `CCCc1nc(C(C)(C)O)c(C(N)=O)n1Cc1ccc(-c2ccccc2-c2nnn[nH]2)cc1` [R239470], the “Cysteine accessibility at Ser109 compared to ligand (-)” value is “No change”.

Source of the values: publication PMC3375280 (PLoS ONE, 2012).
